The conditions of data set [1]: cited from earlier work; for Variation of plasma concentration during a 12-h period: after a 150-mg dose of dabrafenib at steady state (day 15).
The nature of data set [2]: Clinical pharmacokinetics of dabrafenib (literature). It counts as in vivo, human. The note with it: plasma.
Data set [3] in a line: LC-MS/MS measurement of dabrafenib and metabolites in patient plasma at steady state. Conditions: for Plasma concentration in typical patient sample: Fig. 3, single patient sample; for Diff (difference between the highest and lowest concentrations) / Median C (plasma concentration) / Range of plasma concentration: patient plasma, steady state, dabrafenib 150 mg BID orally. Format: in vivo, human. As to the method:
Seven blood samples were obtained between 14 and 17 h after last dose from four different patients with disseminated melanoma after 1, 2, or 3 months of treatment with dabrafenib at the full recommended dose of 150 mg BID orally. […] Plasma was collected after centrifugation, immediately frozen, and stored at −80 °C until analysis. The study protocol was approved by the Ethical Review Board in Stockholm (DNR 2011/1980-31/1) and written informed consent was obtained from patients prior to study entry. Drug-free ethylenediaminetetraacetic acid (EDTA) plasma was donated from six volunteers (three males and three females) with an average age of 26 (22–30) years.
Fifty microliters aliquots of plasma was thawed and precipitated with 200 μL of internal standard mixture containing erlotinib-d6 (200 ng/mL) in acetonitrile. Following vortex mixing, the samples were centrifuged (17530 RCF, 5 min, 4 °C). The supernatant (150 μL) was mixed with 150 μL water and transferred to a 0.7-mL 96-well plate.
Calibration standards for dabrafenib were prepared at seven levels in the concentration range 5–5000 ng/mL (5-15-60-250-1000-3750-5000) by diluting the corresponding working stock solutions 1:10 with drug-free plasma. The upper limit of quantification (ULOQ) was selected based on the highest expected dabrafenib concentration, and the lower limit of quantification (LLOQ) was selected based on observed carry-over from the ULOQ. LOD was not determined as LLOQ was limited by the carry-over. QC samples were prepared separately from the calibration standards at four levels (LLOQ-low-medium-high, 5-15-250-3750 ng/ml).
Due to the lack of reference materials, the six metabolites were semi-quantitatively determined using the calibration curve for dabrafenib. The bias caused by, among other things, differences in recovery and ionization efficiency was not corrected for. This bias is indicated by the addition of an asterisk to the units of metabolite concentrations.

Data set [4] is described as follows: Stability of dabrafenib in spiked whole blood, plasma and processed samples. Format: in vitro ADME, human. The note with it: for Concentration relative to nominal concentration (Rel): long term, −80 °C for 16 months. As to the method: Stability was evaluated at the low and high QC levels. Processed sample stability by re-injection of calibration and QC samples after 24 h at 5 °C. Freeze-thaw stability (n = 3) was determined for three freeze-thaw cycles at −80 °C. Short-term stability of dabrafenib was investigated in whole blood and plasma using spiked drug-free plasma (n = 2) stored at room temperature or 5 °C for 0, 24, 48, and 72 h, respectively. Long-term stability of dabrafenib (QC low, QC middle, and QC high; n = 3) was determined for a sample stored at −80 °C for 16 months. Accuracy within ±15% of the nominal value was required to consider dabrafenib stable under all conditions.

Assay in data set [5]: as above
It counts as in vitro ADME, human. Conditions: 72 h 4°C.

Details of data set [6]: method as in PMID 22735384. Conditions: phase III trial; cited from earlier work.
The next data set relates to BRAFV600E. More on the design: method as in earlier work. The note with it: cited from earlier work.
Setting [7] is: semi-quantification based on the calibration curve of dabrafenib.
The mark [8] stands for this setting: 14-17 h after last dose, semi-quantification based on the calibration curve of dabrafenib.

The values below come from PMC5427163, “Simple and cost-effective liquid chromatography-mass spectrometry method to measure dabrafenib quantitatively and six metabolites semi-quantitatively in human plasma” (Analytical and Bioanalytical Chemistry, 2017).

The structures appear in SMILES notation. Marks after values point to notes of the source that are not given here.

As for `CC(C)(C(=O)O)c1nc(-c2cccc(NS(=O)(=O)c3c(F)cccc3F)c2F)c(-c2ccnc(N)n2)s1` [Carboxy-Dab, carboxy-dabrafenib], the “Variation of plasma concentration during a 12-h period” value in data set [1] is reported as “around 1.5 fold”. For the same compound, in data set [2], the “Concentration reported by Falchook et al. relative to this study (fold higher)” value worked out at 8 fold. Moreover, in data set [3] (setting [7]), the “Plasma concentration in typical patient sample” value was 400 ng/mL and the “Range of plasma concentration” value was “(230–690) ng/ml”. In addition, the “Diff (difference between the highest and lowest concentrations)” value in data set [3] is on record as 3-fold. For the same compound, in data set [3] (setting [8]), the “Median C (plasma concentration)” value is 450^a ng/ml.
Take `CC(C)(C)c1nc(-c2cccc(NS(=O)(=O)c3c(F)cccc3F)c2F)c(-c2ccnc(N)n2)s1` [Dabrafenib]: in data set [1], the “Variation of plasma concentration during a 12-h period” value is on record as 16 fold. For the same compound, the “Inter-patient coefficient of variation (CV) in maximum concentration at steady state” value in data set [1] is listed as 73%. Further, the Half-life in data set [1] (patients) is recorded as 4.8 h. Moreover, the “Long-term stability in plasma” value in data set [4] (16 months of storage at −80 °C) is reported as “stable”. Further, in data set [4] (24 h at 5 °C, stable = accuracy within ±15% of nominal), the “Stability of processed samples” value is reported as “stable”. In data set [4] (72 h at room temperature and at 5 °C, stable = accuracy within ±15% of nominal), the “Short-term stability in whole blood or plasma” value was “stable”. The “Concentration relative to initial sample concentration (Rel)” value amounted to 106% in data set [4] (plasma, High QC, 72 h 4°C); 101% in data set [4] (plasma, High QC, 72 h RT); 96% in data set [4] (plasma, High QC, three freeze-thaw cycles at −80 °C); 98% in data set [4] (plasma, Low QC, 72 h RT); 98% in data set [4] (plasma, Low QC, three freeze-thaw cycles at −80 °C); 89% in data set [4] (processed sample, High QC, 24 h 5°C). Also, the “Concentration relative to initial sample concentration (Rel)” value in data set [4] (processed sample, Low QC, 24 h 5°C) came to 87%; in data set [4] (whole blood, High QC, 72 h RT), 95%; in data set [4] (whole blood, Low QC, 72 h RT), 94%; in data set [5] (plasma, Low QC), 109%; in data set [5] (whole blood, High QC) it was 99%; in data set [5] (whole blood, Low QC), 99%. Also, the “Concentration relative to nominal concentration (Rel)” value in data set [4] (plasma, High QC) was 106%; in data set [4] (plasma, Low QC), 101%. Besides, the “Freeze-thaw stability in plasma” value in data set [4] (three freeze-thaw cycles) is “stable”. Also, the “Plasma concentration in lowest patient sample” value in data set [3] (Fig. 2) is given as 75 ng/mL. Moreover, the “Plasma concentration in typical patient sample” value in data set [3] (quantitative) is given as 1400 ng/mL. Also, in data set [3], the “Diff (difference between the highest and lowest concentrations)” value is 19-fold. In addition, the “Median C (plasma concentration)” value in data set [3] (14-17 h after last dose, 7 samples from 4 patients, quantitative) is 400 ng/mL. Moreover, in data set [3] (14-17 h after last dose, quantitative), the “Range of plasma concentration” value was “(75–1400) ng/ml”. Further, in data set [6], the “Patients with adverse events of grade 2 or greater” value is listed as 53%.
As for `CC(C)c1nc(-c2cccc(NS(=O)(=O)c3c(F)cccc3F)c2F)c(-c2ccnc(N)n2)s1` [Desmethyl-Dab, desmethyl-dabrafenib], the “Variation of plasma concentration during a 12-h period” value in data set [1] is “around 1.5 fold”. Besides, the “IC50 relative to dabrafenib (fold higher)” value in the data set on BRAFV600E is reported as roughly 2 fold. In addition, in data set [3] (setting [7]), the “Plasma concentration in typical patient sample” value is 660 ng/mL and the “Range of plasma concentration” value was “(170–660) ng/ml”. In data set [3], the “Diff (difference between the highest and lowest concentrations)” value is listed as 4-fold. Besides, in data set [3] (setting [8]), the “Median C (plasma concentration)” value is 400^a ng/ml.
As to `C=C(COC1OC(C(=O)O)C(O)C(O)C1O)c1nc(-c2cccc(NS(=O)(=O)c3c(F)cccc3F)c2F)c(-c2ccnc(N)n2)s1` (stereo not drawn) [Gluc met], in data set [3] (setting [7]), the “Plasma concentration in typical patient sample” value is 32 ng/mL and the “Range of plasma concentration” value is “(22–65)^b ng/ml”. Moreover, the “Diff (difference between the highest and lowest concentrations)” value in data set [3] is listed as 3-fold. Further, the “Median C (plasma concentration)” value in data set [3] (setting [8]) was 38^a ng/ml.
On to `CC(C)(CO)c1nc(-c2cccc(NS(=O)(=O)c3c(F)cccc3F)c2F)c(-c2ccnc(N)n2)s1` [Hydroxy-Dab, hydroxy-dabrafenib], for which, in data set [1], the “Variation of plasma concentration during a 12-h period” value is on record as 7 fold. The “IC50 relative to dabrafenib (fold higher)” value in the data set with BRAFV600E is “approximately 3 fold”. In addition, in data set [3] (setting [7]), the “Plasma concentration in typical patient sample” value came out at 280 ng/mL and the “Range of plasma concentration” value was “(19–278) ng/ml”. Besides, in data set [3], the “Diff (difference between the highest and lowest concentrations)” value was 15-fold. For the same compound, in data set [3] (setting [8]), the “Median C (plasma concentration)” value was 74^a ng/ml.
Take `C=C(C)c1nc(-c2cccc(NS(=O)(=O)c3c(F)cccc3F)c2F)c(-c2ccnc(N)n2)s1` [M31]: in data set [3] (setting [7]), the “Plasma concentration in typical patient sample” value was determined as 550 ng/mL and the “Range of plasma concentration” value was “(160–590) ng/ml”. The “Diff (difference between the highest and lowest concentrations)” value in data set [3] is listed as 4-fold. Further, in data set [3] (setting [8]), the “Median C (plasma concentration)” value is reported as 400^a ng/ml.
As for `CCCS(=O)(=O)Nc1ccc(F)c(C(=O)c2c[nH]c3ncc(-c4ccc(Cl)cc4)cc23)c1F` [vemurafenib], the Inter-patient variability in data set [1] is 30–60%.
